Article PMC11162475, “Rule-based omics mining reveals antimicrobial macrocyclic peptides against drug-resistant clinical isolates” (Nature Communications, 2024)
In brackets after ≈: the same amount, converted by molar mass.

Key:
[1] = test system: Enterococcus faecalis OG1RF; test: microbe, parasite or virus in culture; type: cell-based; details: OG1RF, 20 h
Procedure: (§1) For MIC determination, Staphylococcus aureus ATCC25923, Bacillus subtilis 168, Micrococcus luteus DSM1790, Enterococcus faecalis OG1RF, Enterococcus faecium MCC2763, Escherichia coli DH5α and Pseudomonas aeruginosa PAO1 were used as indicator strains. Nisin and vancomycin were used as positive controls. A dilution series of massatide A, massatide B, vancomycin (16, 8, 4, 2, 1, 0.5, 0.25, 0.125, 0.0625, 0.0313 μg/mL) and sistertide A1, kebanetide A1, kebanetide A2, nisin (64, 32, 16, 8, 4, 2, 1, 0.5, 0.25, 0.125 μg/mL) were prepared in 96-well plate from 1–10th column. The indicator strains were added to the compound-containing well. The indicator strain culture with no antibiotics was prepared in the 11th column. The 12th column was filled with 200 μL empty MHB medium. The 96-well plate was incubated at 37 °C for 20 h (30 °C for M. luteus and B. subtilis). The OD600 was detected on MULTISKAN Sky (Thermo Scientific) and MIC values were determined. The MIC values of clinical isolates were determined by Sichuan Primed Shines Bio-tech Co., Ltd. (China) following similar protocol. Levofloxacin was used as a positive control.

[2] = test system: Bacillus subtilis 168; test: microbe, parasite or virus in culture; type: cell-based
Procedure: as §1

[3] = test system: Enterococcus faecium MCC2763; test: microbe, parasite or virus in culture; type: cell-based; details: MCC2763, 20 h
Procedure: as §1

[4] = test system: Micrococcus luteus DSM1790; test: microbe, parasite or virus in culture; type: cell-based; details: DSM1790, 20 h
Procedure: as §1

[5] = test system: Staphylococcus aureus ATCC25923; test: microbe, parasite or virus in culture; type: cell-based; details: ATCC25923, 20 h
Procedure: as §1

[6] = test system: Micrococcus luteus DSM1790; test: Kirby-Bauer assay, zone of inhibition (agar well); type: cell-based; details: M. luteus DSM1790; 10 μL DMSO stock (3.2 or 1.6 mg/mL) in well of soft LB agar, 30 °C, 20 h
Procedure: The stock solution of massatide A (1) and B (1a) 3.2 mg/mL were prepared in DMSO. 40 μL overnight culture of Micrococcus luteus DSM1790 was added to 20 mL soft Luria-Bertani agar (1% agar), and then poured into a plate. 10 μL tip was used to make two wells on the plate. 10 μL massatide A (1) or B (1a) solution was added in one of the wells, while in the other well, 10 μL DMSO was added as a negative control. The plates were incubated at 30 °C for 20 h to observe the zone of inhibition. Staphylococcus aureus ATCC25923 was also used to observe the inhibition zone using a similar method. The only difference is incubating at 37 °C. Stock solutions of sistertide A1, kebanetide A1 and A2 were 3.2 mg/mL, 1.6 mg/mL and 1.6 mg/mL, respectively. The method to observe the activity of these compounds individually was the same as that of massatide.

[7] = test system: Escherichia coli DH5α; type: cell-based; details: DH5α, 20 h
Procedure: as §1

[8] = test system: Pseudomonas aeruginosa PAO1; type: cell-based; details: PAO1, 20 h
Procedure: as §1

[9] = test system: S. aureus ATCC 25923; test: Time-dependent killing assay; type: cell-based, Staphylococcus aureus; details: time-killing assay
Procedure: Time-dependent killing assay
An overnight culture of S. aureus ATCC 25923 cells was diluted at 1:10,000 in MHB medium and incubated at 37 ℃, 200 rpm for 2 hours to reach the early exponential.
Then, massatide A or vancomycin was added to the culture at the concentration of 10×MIC. Bacteria were still cultivated at 37 ℃, 200 rpm. Culture with no antibiotics was used as a negative control. 10 μL aliquots were removed at intervals, centrifuged, and resuspended in 1 ml PBS. Serially diluted (10-fold) suspensions were plated on MHB agar and incubated at 37 ℃ overnight for counting of colony-forming units.
(§2) Experiments were performed in triplicate. […]

[10] = test system: S. aureus ATCC 25923; details: 25 days of serial passaging, control antibiotic
Procedure: was used as a negative control.
Experiments were performed in triplicate.
The experiment was performed in triplicate.

[11] = test system: S. aureus ATCC 25923; test: Lysis of S. aureus culture; type: cell-based, Staphylococcus aureus; details: S. aureus ATCC 25923 culture OD600 1.0, 10×MIC, 24 h
Procedure: Growth kinetics of S. aureus
Massatide A or B was prepared in a 96-well plate at the concentration of 8×MIC, 4×MIC, 2×MIC, 1×MIC and 0.5×MIC , respectively. The MHB medium with no compound was used as a control. Then, the overnight culture of S. aureus ATCC 25923 cells was added to the medium at 1:1,000. The plate was incubated with shaking in SpectraMax iD3 (MOLECULAR DEVICES) at 30 ℃. OD600 was measured every 30 min for 36 hours. To analyze the lysis, 1mL of S. aureus ATCC 25923 culture (OD600 1.0) was treated with massatide A or vancomycin (10×MIC) for 24h. An untreated sample was used as a negative control. […]
as §2

For `C=C1NC(=O)C(NC(=O)/C(=C/C)NC(=O)[C@H](CCCNC(=N)N)NC(=O)[C@@H](C)NC(=O)[C@@H](NC(=O)[C@H](C)NC(=O)[C@@H](NC(=O)[C@@H](C)NC(=O)[C@H](C)NC(=O)[C@@H]2CSC(C)C(N(C)C)C(=O)N/C(=C\C)C(=O)N[C@@H](Cc3ccc(O)cc3)C(=O)N[C@@H]([C@@H](C)CC)C(=O)N2)C(C)C)[C@@H](C)CC)CSC[C@@H](C(=O)N[C@H](C)C(=O)N[C@@H](C)C(=O)N[C@@H](C)C(=O)N[C@@H](C)C(=O)N[C@H](C)C(=O)N[C@@H](C)C(=O)N[C@H](C(=O)N[C@H](C)C(=O)NCC(=O)N[C@@H](C)C(=O)NC2C(=O)N[C@@H](Cc3ccc(O)cc3)C(=O)N[C@@H](CCC(=O)O)C(=O)N[C@@H](Cc3c[nH]c4ccccc34)C(=O)N[C@@H]([C@@H](C)O)C(=O)N/C=C\SC2C)[C@@H](C)CC)NC(=O)[C@H](CCCCN)NC(=O)[C@H](C(C)C)NC1=O` (stereo partly shown) [Sistertide A1 (2), sistertide A1], the MIC [1] was over 64 µg/mL, the MIC ([2]; 168, 20 h) was over 64 µg/mL and the MIC [3] was over 64 µg/mL. For the same compound, the MIC [4] was over 64 µg/mL, the MIC [5] was over 64 µg/mL and the “inhibitory activity (zone of inhibition)” value [6] was “did not display significant inhibitory activity”. It also gave an MIC [7] of over 64 µg/mL and an MIC [8] of over 64 µg/mL.
For `CN[C@H](CC(C)C)C(=O)N[C@H]1C(=O)N[C@@H](CC(N)=O)C(=O)N[C@H]2C(=O)N[C@H]3C(=O)N[C@H](C(=O)N[C@H](C(=O)O)c4cc(O)cc(O)c4-c4cc3ccc4O)[C@H](O)c3ccc(c(Cl)c3)Oc3cc2cc(c3O[C@@H]2O[C@H](CO)[C@@H](O)[C@H](O)[C@H]2O[C@H]2C[C@](C)(N)[C@H](O)[C@H](C)O2)Oc2ccc(cc2Cl)[C@H]1O` [Vancomycin, reference compound], the “log(CFU/mL)” value ([9]; time 0 h, log of mean of 3 replicates) was 6.907 log(CFU/mL), the CFU/mL ([9]; time 0 h, mean of 3 replicates) was 8080000 CFU/mL and the CFU/mL ([9]; time 0 h, replicate 1) was 8440000 CFU/mL. The “log(CFU/mL)” value ([9]; time 0 h, replicate 1) was 6.926 log(CFU/mL), the CFU/mL ([9]; time 0 h, replicate 2) was 8020000 CFU/mL and the “log(CFU/mL)” value ([9]; time 0 h, replicate 2) was 6.904 log(CFU/mL). The CFU/mL ([9]; time 0 h, replicate 3) was 7780000 CFU/mL, the “log(CFU/mL)” value ([9]; time 0 h, replicate 3) was 6.891 log(CFU/mL) and the “log(CFU/mL)” value ([9]; time 1 h, log of mean of 3 replicates) was 6.695 log(CFU/mL). For the same compound, the CFU/mL ([9]; time 1 h, mean of 3 replicates) was 4950000 CFU/mL, the CFU/mL ([9]; time 1 h, replicate 1) was 5360000 CFU/mL and the “log(CFU/mL)” value ([9]; time 1 h, replicate 1) was 6.729 log(CFU/mL). For the same compound, the CFU/mL ([9]; time 1 h, replicate 2) was 5200000 CFU/mL, the “log(CFU/mL)” value ([9]; time 1 h, replicate 2) was 6.716 log(CFU/mL) and the CFU/mL ([9]; time 1 h, replicate 3) was 4290000 CFU/mL. For the same compound, the “log(CFU/mL)” value ([9]; time 1 h, replicate 3) was 6.632 log(CFU/mL), the “log(CFU/mL)” value ([9]; time 3 h, log of mean of 3 replicates) was 6.685 log(CFU/mL) and the CFU/mL ([9]; time 3 h, mean of 3 replicates) was 4836667 CFU/mL. For the same compound, the CFU/mL ([9]; time 3 h, replicate 1) was 4940000 CFU/mL, the “log(CFU/mL)” value ([9]; time 3 h, replicate 1) was 6.694 log(CFU/mL) and the CFU/mL ([9]; time 3 h, replicate 2) was 4850000 CFU/mL. The “log(CFU/mL)” value ([9]; time 3 h, replicate 2) was 6.686 log(CFU/mL), the CFU/mL ([9]; time 3 h, replicate 3) was 4720000 CFU/mL and the “log(CFU/mL)” value ([9]; time 3 h, replicate 3) was 6.674 log(CFU/mL). The “log(CFU/mL)” value ([9]; time 7 h, log of mean of 3 replicates) was 5.899 log(CFU/mL), the CFU/mL ([9]; time 7 h, mean of 3 replicates) was 791667 CFU/mL and the CFU/mL ([9]; time 7 h, replicate 1) was 695000 CFU/mL. The “log(CFU/mL)” value ([9]; time 7 h, replicate 1) was 5.842 log(CFU/mL), the CFU/mL ([9]; time 7 h, replicate 2) was 770000 CFU/mL and the “log(CFU/mL)” value ([9]; time 7 h, replicate 2) was 5.886 log(CFU/mL). The CFU/mL ([9]; time 7 h, replicate 3) was 910000 CFU/mL, the “log(CFU/mL)” value ([9]; time 7 h, replicate 3) was 5.959 log(CFU/mL) and the “log(CFU/mL)” value ([9]; time 26 h, log of mean of 3 replicates) was 3.724 log(CFU/mL). The CFU/mL ([9]; time 26 h, mean of 3 replicates) was 5300 CFU/mL, the CFU/mL ([9]; time 26 h, replicate 1) was 5500 CFU/mL and the “log(CFU/mL)” value ([9]; time 26 h, replicate 1) was 3.74 log(CFU/mL). For the same compound, the CFU/mL ([9]; time 26 h, replicate 2) was 5400 CFU/mL, the “log(CFU/mL)” value ([9]; time 26 h, replicate 2) was 3.732 log(CFU/mL) and the CFU/mL ([9]; time 26 h, replicate 3) was 5000 CFU/mL. For the same compound, the “log(CFU/mL)” value ([9]; time 26 h, replicate 3) was 3.699 log(CFU/mL), the “shift of MIC during serial passaging” value [10] was “absence of a shift” and the MIC ([1]; Enterococcus faecalis) was 2 µg/mL (≈ 1.38 µM). The MIC ([2]; Bacillus subtilis, 168, 20 h) was 0.125 µg/mL (≈ 0.0863 µM), the MIC ([3]; Enterococcus faecium) was 1 µg/mL (≈ 0.69 µM) and the MIC ([4]; Micrococcus luteus) was 0.125 µg/mL (≈ 0.0863 µM). For the same compound, the MIC ([5]; Staphylococcus aureus) was 1 µg/mL (≈ 0.69 µM) and the “lysis of the cell culture” value [11] was “the same as vancomycin”.
